Results on seven molecules are retold here after PubChem BioAssay (NCI).

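Interpolation was linear, between the two tested concentrations surrounding the appropriate level; five concentrations were tested over 48 hours in 96-well plates. Abbreviation: GI50, concentration required for 50% inhibition of growth. TGI denotes the concentration required for complete inhibition of growth.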

Holding throughout (assay): growth of human tumour cells (NCI), 48 h
The subject of assay [1] is KM12 colon.
In assay [2] the test system is UO-31 renal.
Assay [3] deals with LOX IMVI melanoma.
In assay [4] the test system is OVCAR-5 ovarian.
Assay [5] relates to HT29 colon.
The subject of assay [6] is MDA-MB-435.
Assay [7] relates to ACHN renal.
Assay [8] deals with OVCAR-4 ovarian.
In assay [9] the test system is U251 CNS.
The subject of assay [10] is NCI-H522 lung.

Regarding `O=C1CCCC1C(=O)Nc1ccc2ccccc2c1` (centres undefined), the TGI is > 100 µM in assay [1]; > 100 µM in assay [2]; > 100000 nM in assay [3]; > 100 µM in assay [4]; > 100 µM in assay [5]; > 100 µM in assay [6]. Also, the TGI in [7] is > 100 µM; in assay [8], > 100 µM; in assay [9] it was > 100 µM; in assay [10], > 100000 nM.

Consider `O=C(CCCCCCc1nc2ccc(Br)cc2[nH]1)NO`, for which the GI50 in assay [1] was 377 nM; in assay [2], 433 nM; in assay [3], 396 nM; in [4], 568 nM; in assay [5] it was 291 nM; in assay [6], 277 nM. The GI50 was 671 nM in [7], 2430 nM in [8], 387 nM in [9] and 134 nM in assay [10]. Also, the TGI in assay [1] was 4.18 µM; in assay [2], 5.22 µM; in assay [3], 1550 nM; in assay [4], 22.3 µM; in assay [6] it was 1.38 µM; in assay [7] it was 3.41 µM. Moreover, the TGI in assay [8] is > 100 µM; in assay [9] it was 4.62 µM; in [10], 859 nM.

Turning to `CC/C=C/[C@@H]1C=C[C@@H]2CCC[C@H]2[C@@H]1CC[C@H](O)[C@H](C)N`, the GI50 is 1700 nM in assay [1]; 1770 nM in [2]; 1580 nM in assay [3]; 1690 nM in assay [4]; 1460 nM in assay [5]; 1700 nM in assay [6]. Further, the GI50 in assay [7] is 1590 nM; in assay [8], 1830 nM; in assay [9] it was 1530 nM; in assay [10], 1820 nM. Besides, the TGI in assay [1] is 3.07 µM; in assay [2], 4.91 µM; in assay [3], 2920 nM; in assay [4] it was 3.55 µM; in [5], 2.77 µM; in assay [6], 3.27 µM. Further, the TGI was determined as 2.94 µM in [7], 4.88 µM in assay [8], 2.86 µM in assay [9] and 3990 nM in assay [10].

As for `O=c1ccc2nc(-c3ccccc3)nn(-c3ccccc3)c-2c1`, the GI50 in [1] is 16400 nM; in assay [2], 512 nM; in assay [3], 2080 nM; in assay [4] it was 2600 nM; in assay [5] it was 1800 nM; in assay [6], 1850 nM. The GI50 in assay [7] is 470 nM; in [8], 1500 nM; in [9], 5780 nM; in assay [10] it was 462 nM. The TGI in assay [1] was 37.5 µM; in assay [2], 0.992 µM; in assay [3], 4270 nM; in [4] it was 7.54 µM; in assay [5], 3.45 µM; in [6] it was 4.17 µM. The TGI amounted to 1.44 µM in assay [7], 2.85 µM in assay [8], 20.4 µM in [9] and 918 nM in assay [10].

As to `Cc1ncc(C(=O)Nc2ccc(CN3CCN(C)CC3)c(C(F)(F)F)c2)cc1C#Cc1c(N)ncc2ccc(C#N)cc12`, the GI50 in assay [1] was 5 nM; in assay [2] it was 1260 nM; in assay [3], 92 nM; in assay [4], 1250 nM; in assay [5], 29.3 nM; in assay [6] it was 163 nM. Also, the GI50 in [7] is 293 nM; in [8] it was 975 nM; in [9], 5800 nM; in assay [10] it was 1610 nM. The TGI in [1] was 2.09 µM; in assay [2] it was 4.99 µM; in assay [3], 791 nM; in assay [4] it was 10.9 µM; in assay [5], 7.74 µM; in assay [6] it was 3.31 µM. In addition, the TGI in assay [7] turned out to be 3.35 µM; in assay [8], 11 µM; in assay [9], 14.4 µM; in assay [10], 21700 nM.

On to `CC[C@]1(O)C[C@@H]2CN(Cc3c([nH]c4ccccc34)[C@@](C(=O)OC)(c3cc4c(cc3OC)N(C)[C@H]3[C@@](O)(C(=O)OC)[C@H](OC(C)=O)[C@]5(CC)[C@@H]6C[C@@H]6CN6CC[C@]43[C@@H]65)C2)C1`, for which the GI50 was 40.8 nM in assay [1]; > 3590 nM in assay [2]; 30.4 nM in assay [3]; 144 nM in assay [4]; 31.1 nM in [5]; 6.12 nM in assay [6]. Also, the GI50 in [7] was 3380 nM; in assay [8] it was 666 nM; in [9], 112 nM; in [10], 10.5 nM. Besides, the TGI in assay [1] was > 4.38 µM; in assay [2], > 4.38 µM; in assay [3], > 4380 nM; in assay [4], > 4.38 µM; in [5], > 4.38 µM; in assay [6] it was 0.0235 µM. Moreover, the TGI was > 4.38 µM in assay [7], > 4.38 µM in [8], > 4.38 µM in assay [9] and 94.7 nM in assay [10].

For the molecule `COc1ccccc1/C=C1\COc2ccc(O)c(O)c2C1=O`, the GI50 in [1] was 1730 nM; in assay [2], 1040 nM; in assay [3] it was 1260 nM; in assay [4], 2330 nM; in [5], 2770 nM; in [6] it was 1570 nM. Moreover, the GI50 in assay [7] is 1310 nM; in assay [8], 1860 nM; in assay [9] it was 1570 nM; in assay [10] it was 214 nM. Besides, the TGI turned out to be 3.89 µM in assay [1]; 2.24 µM in [2]; 2660 nM in assay [3]; 5.48 µM in assay [4]; 7.78 µM in assay [5]; 4.96 µM in assay [6]. In addition, the TGI in [7] is 2.64 µM; in assay [8], 9.55 µM; in [9], 3.99 µM; in [10], 656 nM.
